From patent US4603044A, “Hepatocyte Directed Vesicle delivery system” (Technology Unlimited, Inc., priority 1984, dated 1986) come the findings set out here.

For data set [1], the system named is selectively denervated dog. Briefly: Conversion of hepatic glucose output to uptake in selectively denervated dog, intravenous infusion (biliverdin target). It is filed as in vivo. The protocol: This dog, when infused with glucose, has portal vein glucose values (mg % measured with a Beckman Glucose Analyzer) that are less than hepatic vein glucose, indicating a hep hepatic glucose output. This is clearly seen in the data presented in the of FIG. 6. The dog is in a state of glucose output for time 15, 30 and 40 minutes. […]

The test system of data set [2] is denervated dogs (diabetic-like state). Briefly: Blood glucose response to a standardized meal in selectively denervated (diabetic-like) dogs. The data set is classed as in vivo, dog. Conditions: serotonin 150 ug, intravenously or subcutaneously. An excerpt:
In a first study testing the HDV system, a chronic dog model was selected which mimics the early stages of adult onset diabetes mellitus, now referred to as diabetes mellitus Type II. In this model, the diabetes was induced by selective denervation.
This study was divided into three phases, studying the blood glucose response of the animals while in the (1) normal state; (2) diabetic-like state; and (3) successful treatment of the diabetic-like state with subcutaneously administered HDV containing serotonin.
The experimental plan required four normal, healthy mongrel dogs. […] The graph of FIG. 1 is a comparison chart for in vivo testing.
The data for this normal phase are shown in the graph as the line indicated by reference number 10. The data are expressed as a percentage of the fasting blood glucose value taken prior to feeding. Since four dogs were used, the average or mean value for the data is plotted. The data are statistically analyzed, and the variation in the data is shown by the small vertical bars above and below the data points. These bars are the standard error of the mean (SEM).
Following the acquisition of the data described above, the dogs were surgically denervated to induce the diabetic-like state and allowed a week to recover. At this time the study is again repeated, and the data are shown as the line indicated by reference number 12, along with the error bars (SEM). […]

In data set [3] the test system is selectively denervated dog. As to the kind of experiment: Conversion of hepatic glucose output to uptake in selectively denervated dog, intraduodenal injection. The data set is classed as in vivo. The conditions noted are these: infusion for thirty minutes. The protocol:
In this model, the response of the HDV Serotonin was the conversion of hepatic glucose output to uptake. This conversion was determined by measuring the glucose levels (Beckman Glucose Analyzer) in simultaneously obtained blood samples from the portal and hepatic veins. Sampling was by means of sampling catheters acutely placed under general anesthesia.
The state of hepatic glucose output occur when the level of glucose (mg %) in the hepatic vein exceeds that of the portal vein. Hepatic glucose uptake is the reverse situation.
Data for the experiment are found in the graph of FIG. 5. At "0" minutes, during the control period, the animal is in a state of hepatic glucose output. Because of the selective denervation, the animal stays in output (at 20 and 55 minutes), even though glucose is being infused at a rate of 0.5 g/kg body weight/hour via a mesenteric vein.
The HDV Serotonin is injected into the duodenum (0.8 ml containing 3 ug serotonin/kg) at 60 minutes.

For data set [4], the system named is insulin-deficient (diabetic) dog. As to the kind of experiment: Conversion of hepatic glucose output to uptake in insulin-deficient (diabetic) dog, intravenous infusion. It is filed as in vivo. The conditions noted are these: insulin alone. An excerpt: The response of HDV Insulin to be measured was the conversion of hepatic glucose output to uptake by measuring the glucose (Beckman Glucose Analyzer) levels of simultaneously obtained portal and hepatic vein blood. Diabetes had been induced by the method of Black, (Am. J. Pathol. Vol 98, No. 2, pg 295-305, 1980) and sampling was done via portal and hepatic vein catheters acutely placed under general anesthesia. The dog had been fasted from food for twenty-four hours and taken off of exogenously-administered insulin for forty-eight hours.
The state of hepatic glucose output occurs when the hepatic vein glucose level (in mg%) exceeds the portal vein glucose level. Hepatic glucose uptake is the reverse.
The data for the experiment are found in the graph of FIG. 4. At "0" minutes the dog is in glucose output, and this output is maintained through the "23" and "35" minute samples, even though glucose is infused via a mesenteric vein at a rate of 0.5 g/kg body weight/hour. An intact (non-diabetic) animal would have immediately converted to glucose uptake. This dog's diabetic state is confirmed by its' not converting to glucose uptake at these times.
Following the "35" minutes sampling, HDV Insulin was infused via the left external jugular vein at a rate of 0.03 mU/kg/minute. […] The minimum infusion rate for insulin alone is 6.25 mU/kg/minute. […]

The subject of the next data set is hypophysectomized rats. Briefly: Growth stimulation in hypophysectomized rats, daily subcutaneous injection. It is filed as in vivo, rat. The protocol: The HDVGH was administered to rats daily by subcutaneous injection. The control rats required 10 ugGH per day (also given subcutaneously) to maintain normal growth of 1 g weight gain per day. The HDVGH treated rats attained normal growth rates with dosages of HDVGH of 0.15 to 1.5 ug per day. Thus, the HDVGH required only 1/7th to 1/50th of the regular dose of growth hormone. The HDVGH was superpotent and was efficacious when given by subcutaneous injection.

Turning to `NCCc1c[nH]c2ccc(O)cc12` [serotonin, 5-hydroxytryptamine], the “rate of free serotonin infusion required” value in data set [1] stood at 30 µg/kg/min. Further, the “effect of free serotonin on post-meal blood glucose elevation” value in data set [2] is given as “not effective”. The “intraportal infusion of free serotonin required for the same pharmacologic effect” value in data set [3] was 10-30 ug/kg body weight/minute.

Take “insulin: free hormone insulin, comparator to HDV Insulin”: in data set [4], the “minimum infusion rate for conversion to hepatic glucose uptake” value was 6.25 mU/kg/minute.

B1: GH: free growth hormone given subcutaneously to control rats (protein, UniProt P01244 27-216, looked up)
Somatotropin: FPAMPLSSLFANAVLRAQHLHQLAADTYKEFERAYIPEGQRYSIQNAQAAFCFSETIPAPTGKEEAQQRTDMELLRFSLLLIQSWLGPVQFLSRIFTNSLMFGTSDRVYEKLKDLEEGIQALMQELEDGSPRIGQILKQTYDKFDANMRSDDALLKNYGLLSCFKKDLHKAETYLRVMKCRRFAESSCAF
Take B1: the “daily dose to attain/maintain normal growth (1 g weight gain per day)” value in the data set on hypophysectomized rats amounted to 10 ug per day.
